Data as given in patent US8147891B2, “Use of an acaricidal powder” (SOLVAY (Societe Anonyme), priority 2002, dated 2012).
Read-outs that look alike come from different tables or passages of the source.

Key:
Acarus siro = settings: after 48 hours; 10 g powder, 50 mites, mean of 3 samples
Source text: (§1) 10 g of sodium bicarbonate powder having a particle size such that 100% of the particles have a diameter of less than 160μ, and at least 95% have a diameter of less than 100μ, were placed at the bottom of a Petri dish. 50 “Acarus siro” wheat mites were then placed on the powder.

Tyrophagus putrescentiae = settings: after 24 hours; 10 g powder, 50 mites
Method: as §1
The procedure was carried out as for Example 1, except that “Tyrophagus putrescentiae” cheese mites were used.

Rhizopertha dominica = settings: 10 g powder, 50 insects
Source text: In this example, a powder comprising 96% of sodium bicarbonate and 4% of amorphous precipitated fumed silica (Aerosil® 200 produced by Degussa) was used. The powder has a particle size such that 100% of the particles have a diameter of less than 160μ and at least 95% have a diameter of less than 100μ.
(§2) 10 g of powder were placed at the bottom of a Petri dish. 50 “lesser grain borer” insects (Rhizopertha dominica) were then placed on the powder, along with sufficient food to ensure survival for 15 days.
In Examples 4 and 5, the procedure was carried out as in Example 3, except that, in Example 4, a powder consisting essentially of sodium bicarbonate was used and, in Example 5, a powder consisting essentially of silica (silica gel) was used.

Sitophilus granarius = system: Sitophilus granarius
Source text: as §2
The effect of various silicas and of a mixture of diatomaceous earth supplemented with 10% of silica gel was also compared.

## O=C([O-])O.[Na+] [Sodium bicarbonate, sodium bicarbonate]
Acarus siro
  death of the acarids: 95%
Tyrophagus putrescentiae
  death of the acarids: 100%
Rhizopertha dominica; 48 h
  % mortality: 2%
Rhizopertha dominica; 72 h
  % mortality: 8%
Rhizopertha dominica; 4 days
  % mortality: 15%
Rhizopertha dominica; 7 days
  % mortality: 21%
Rhizopertha dominica; 10 days
  % mortality: 43%
Rhizopertha dominica; 15 days
  % mortality: 91%
Sitophilus granarius; 24 h
  % mortality: 0%
Sitophilus granarius; 48 h
  % mortality: 0%
Sitophilus granarius; 72 h
  % mortality: 1%
Sitophilus granarius; 4 days
  % mortality: 5%
Sitophilus granarius; 7 days
  % mortality: 9%
Sitophilus granarius; 10 days
  % mortality: 55%
Sitophilus granarius; 15 days
  % mortality: 100%
